Measurements taken from patent publication US20250085201A1, “SUBSTITUTED QUADRUPOLAR FLUORESCENT DYES FOR LIVE CELL IMAGING” (Northwestern University, priority 2023, published 2025).

Columns and labels:
[1] = Absolute fluorescence quantum yield (integrating sphere); format: physicochemical; conditions: in H2O
Protocol: (§1) Fluorescent dyes were dissolved in the appropriate solvents to afford 1 mM solutions prior to spectroscopic analysis. A portion of 30 μL of a 1 mM solution was diluted by adding a selected solvent to a sample with a total volume of 3000 μL, affording a 1×10^−5 M solution. UV/Vis Absorption spectra were recorded in glass cuvettes on a UV-3600 Shimadzu spectrophotometer. Steady-state emission spectra were acquired in quartz cuvettes with optical path-lengths of 10 mm containing the solution being analyzed using a HORIBA Fluoromax4 spectrofluorometer, which was equipped with an integrating sphere for determining the absolute photoluminescence quantum yield.
Steady-state and time-resolved emission spectra for dyes 1-6, 7·2PF6 and 9·4PF6 were acquired using a HORIBA Fluorolog-3 spectrofluorometer, equipped with a time-correlated single photon counting (TCSPC) module (diode laser excitation at λ=375 nm) and an integrating sphere, which was used for absolute photo-luminescence quantum yield determinations. Picosecond time-resolved fluorescence measurements were recorded using a commercial direct-diode-pumped 100 kHz amplifier (Spirit 1040-HE, Spectra-Physics), producing a fundamental beam of 1040 nm (350 fs, 12 W) which was used to pump a non-collinear optical parametric amplifier (Spirit-NOPA, SpectraPhysics) capable of delivering tunable, high-repetition-rate pulses with pulse widths as short as sub-20 fs. Dyes 1-6, 7·2PF6 and 9·4PF6 were excited with 350 nm, 2 nJ laser pulses. Fluorescence was detected using a Hamamatsu C4780 Streakscope as previously described in the literature. Samples were prepared in 2-mm quartz cuvettes. All data were acquired in the single-photon-counting mode using the Hamamatsu HPD-TA software. The temporal resolution was approximately 2% of the sweep window. Single wavelength kinetic analysis was performed using a nonlinear least-squares fit to a sum of exponentials convoluted with an instrument response function. Visible and near-infrared femtosecond and nanosecond transient absorption (fsTA and nsTA, respectively) spectroscopies were performed following descriptions already recorded in the literature. The 330 nm, ˜100 fs pump pulses were generated at 1 μJ per pulse using a commercial collinear optical parametric amplifier (TOPAS-Prime, Light-Conversion, Ltd.); 414-nm pump pulses were obtained by second-harmonic generation of the 828 nm fundamental. The pump polarization was randomized using a commercial depolarizer (DPU-25-A, Thorlabs, Inc.) to eliminate any orientational dynamics resulting from the experiment. Spectra were collected on commercial spectrometers (customized Ultrafast Systems Helios and EOS spectrometers, for fsTA and nsTA, respectively) for each time window. All samples were stirred to avoid localized heating or degradation effects. The optical density was maintained at 0.6 for all samples.
Steady-state and time-resolved emission spectra for dyes 7·2PF6 and 9·4PF6 were acquired using a HORIBA Fluorolog-3 spectrofluorometer, equipped with a time-correlated single photon counting (TCSPC) module (diode laser excitation at =375 nm) and an integrating sphere, which was used for absolute photo-luminescence quantum yield determinations. Picosecond time-resolved fluorescence measurements were recorded using a commercial direct-diode-pumped 100 kHz amplifier (Spirit 1040-HE, Spectra-Physics), producing a fundamental beam of 1040 nm (350 fs, 12 W) which was used to pump a non-collinear optical parametric amplifier (Spirit-NOPA, SpectraPhysics) capable of delivering tunable, high-repetition-rate pulses with pulse widths as short as sub-20 fs. The samples 7·2PF6 and 9·4PF6 were excited with […], 2 nJ laser pulses. Fluorescence was detected using a Hamamatsu C4780 Streakscope as previously described in the literature.^71 Samples were prepared in 2-mm quartz cuvettes. All data were acquired in the single-photon-counting mode using the Hamamatsu HPD-TA software. […]

[2] = Steady-state UV/Vis absorption and fluorescence emission spectra; format: physicochemical; conditions: micromolar concentrations
Protocol: Fluorescent dyes 1-6, 7·2PF6, 8·2PF6, 9·4PF6 and 9·4Cl were dissolved in THF (1-5), MeCN (6, 7·2PF6, 8·2PF6 and 9.4PF6) and H2O (9.4Cl), respectively, to afford 10 μM solutions prior to spectroscopic analysis. For comparison, their normalized (i) UV/Vis absorption (FIG. 2) and (ii) the fluorescence emission (FIG. 3) spectra of quadrupolar dyes are overlayed, displaying a large range of S1 absorbance and emission maxima, which rely highly on their quadrupolarity that is correlated to the electron-deficiency of the ARs.
as §1

## COc1cc2c(OC)cc1-c1cc[n+](cc1)Cc1ccc(cc1)C[n+]1ccc(cc1)-c1cc(OC)c(cc1OC)-c1cc[n+](cc1)Cc1ccc(cc1)C[n+]1ccc-2cc1 [9·4Cl]
[1]
  Quantum Yield (ΦF): 0.15
[2]
  emission in the green region: 548 nm
